In patent publication US10358431B1, “Antimicrobials from an epigenetics based fungal metabolite screening program” (University of South Florida, priority 2015, dated 2019):

Legend:
Leishmania donovani = test: Infected macrophage model of the Leishmania donovani parasite; format: cell-based; details: for IC50: read-out: L. donovani IC50
MRSA [1] = test: Pure compound activity against MRSA (ESKAPE pathogens); format: cell-based, Staphylococcus aureus; details: for IC50: pure compound
MRSA [2] = test: MRSA drug wash-out study / MBC99; format: cell-based, Staphylococcus aureus

For LL-Z1272ε [Compound 6], the “L. donovani IC50 (μM)” value (Leishmania donovani) was “neither phomopsichromin D (4) nor LL-Z1272ε (6) showed any activity” and the “activity towards the macrophages” value (macrophages) was “neither phomopsichromin D (4) nor LL-Z1272ε (6) showed any activity”.
Substance Phomopsichromin A [Compound 1] has an IC50 (MRSA [1]) of 518 µM and an IC50 (Leishmania donovani) of 3 µM.
Work on Phomopsichromin B [Compound 2] yielded an IC50 (MRSA [1]) of 515 µM and an IC50 (Leishmania donovani) of 1.9 µM.
For Phomopsichromin C [Compound 3], the “MIC against MRSA” value (MRSA [1]) was 58 µM, the IC50 (MRSA [1]) was 58 µM and the IC50 (Leishmania donovani) was 0.67 µM. For the same substance, the “drug wash-out study: bactericidal or not” value (MRSA [2]) was “bactericidal”.
With Phomopsichromin D [Compound 4] the “L. donovani IC50 (μM)” value (Leishmania donovani) was “neither phomopsichromin D (4) nor LL-Z1272ε (6) showed any activity” and the “activity towards the macrophages” value (macrophages) was “neither phomopsichromin D (4) nor LL-Z1272ε (6) showed any activity”.
With Phomopsichromin E [Compound 5] the IC50 (MRSA [1]) was 515 µM and the IC50 (Leishmania donovani) was 0.8 µM.
With gentamicin [reference compound] the “MRSA MBC99” value (MRSA [2]) was 20 µM.
